According to patent EP4748833A1, “AMPK AGONIST AND USE THEREOF” (priority 2023, dated 2025):
Where two headings read alike, the source gives them in different places. One block for each compound: values may come before it.

Molecular target: T1, AMPKα1β1γ1 (Homo sapiens, UniProt Q13131+Q9Y478)
T1 construct: purchased CARNA 02-113
Test: In vitro assay for AMPK (α1β1γ1) enzyme agonist activity (TR-FRET)
Type: biochemical
Details: for Emax: 1 h, read-out: Top value
Protocol: Test compounds were dissolved in DMSO to prepare 10 mM stock solution, which was then diluted to the predetermined test concentrations using kinase buffer (50 mM HEPES, 1 mM EDTA, 10 mM MgCl2, 0.01% Brij-35, pH = 7.5). Into a 384-well plate were added 5 µL of AMPKα1β1γ1 (CARNA, 02-113), 2.5 µL of the diluted test compound solution, and 2.5 µL of a mixture of Ulight-CRBN and ATP, resulting in the following final concentrations: AMPKα1β1γ1 at 1.6 mg/L, Ulight-CRBN at 5 nM, and ATP at 0.1 mM. The components were mixed evenly, and reacted at room temperature for 1 hour. Subsequently, 5 µL of LANCE Detection Buffer (CR97-100, PerkinElmer) containing 40 mM EDTA was added. After standing for 5 minutes, 5 µL of 4× Eu-anti-phospho-CREB Antibody (TRF0200-M, PerkinElmer) was added, and the mixture was allowed to stand at room temperature for 1 h. The values of samples in each well were read using a microplate reader in TR-FRET mode (excitation wavelength: 320 nm; emission wavelengths: 665 nm and 615 nm). By comparing the values with those of the blank control group (1% DMSO) and the positive control group (1 µM A769662), the relative activity of AMPKα1β1γ1 at each test compound concentration (4.57 nM, 13.72 nM, 41.15 nM, 123.46 nM, 370.37 nM, 1111.11 nM, 3333.33 nM, and 10000 nM) was calculated, with the activity of 1 µM A769662 set as 100%. The data were analysed in GraphPad Prism 9 using a Dose-response-Stimulation four-parameter regression model to obtain the Top and EC50 values for the test compounds. [drawing 522] has a structure of A769662.

[1] = AMPKα1β1γ1 1.6 mg/L, ATP 0.1 mM, 1 hour at room temperature, four-parameter regression, read-out: EC50

T1 sequence (Q13131 whole entry): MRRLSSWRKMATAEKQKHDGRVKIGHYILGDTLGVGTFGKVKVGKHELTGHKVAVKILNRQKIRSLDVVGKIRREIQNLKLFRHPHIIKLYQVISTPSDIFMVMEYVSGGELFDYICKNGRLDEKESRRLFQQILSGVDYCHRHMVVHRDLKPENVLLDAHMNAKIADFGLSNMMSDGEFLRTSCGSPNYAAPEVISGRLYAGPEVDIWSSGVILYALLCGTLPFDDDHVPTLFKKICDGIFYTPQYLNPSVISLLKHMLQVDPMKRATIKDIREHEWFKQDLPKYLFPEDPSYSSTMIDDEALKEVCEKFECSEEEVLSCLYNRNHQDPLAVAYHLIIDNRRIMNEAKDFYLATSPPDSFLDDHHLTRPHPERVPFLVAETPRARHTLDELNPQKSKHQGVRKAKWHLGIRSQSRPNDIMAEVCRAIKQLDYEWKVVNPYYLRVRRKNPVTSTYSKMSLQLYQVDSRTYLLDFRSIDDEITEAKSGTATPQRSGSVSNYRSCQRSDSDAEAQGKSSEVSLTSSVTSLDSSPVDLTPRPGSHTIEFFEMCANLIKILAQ
T1 sequence (Q9Y478 whole entry): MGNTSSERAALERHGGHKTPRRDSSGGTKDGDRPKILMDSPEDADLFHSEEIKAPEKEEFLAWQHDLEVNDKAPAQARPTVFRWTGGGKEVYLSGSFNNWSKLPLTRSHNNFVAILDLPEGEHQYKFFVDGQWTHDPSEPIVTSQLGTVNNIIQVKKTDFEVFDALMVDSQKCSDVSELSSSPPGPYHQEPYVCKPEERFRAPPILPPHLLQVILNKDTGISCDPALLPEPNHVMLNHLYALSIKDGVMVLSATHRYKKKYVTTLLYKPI
T1 sequence (P54619 whole entry partner): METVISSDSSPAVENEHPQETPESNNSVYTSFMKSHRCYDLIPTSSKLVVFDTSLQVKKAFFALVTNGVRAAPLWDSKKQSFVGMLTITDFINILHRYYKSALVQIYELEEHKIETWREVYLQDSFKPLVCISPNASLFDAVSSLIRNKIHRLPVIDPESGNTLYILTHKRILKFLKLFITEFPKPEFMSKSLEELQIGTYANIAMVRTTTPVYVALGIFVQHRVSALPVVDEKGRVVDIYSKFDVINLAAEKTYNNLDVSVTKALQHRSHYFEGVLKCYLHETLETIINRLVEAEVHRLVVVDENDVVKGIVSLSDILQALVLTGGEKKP

Structure (SMILES): O=C(O)Cc1c[nH]c2cc(Cl)c(-c3ccc(C4(O)CCC4)cc3)nc12 [Compound 1]
Emax: 50 to 70%
EC50 [1]: > 0.8 µM

Structure (SMILES): O=C(O)C(=O)c1c[nH]c2cc(Cl)c(-c3ccc(C4(O)CCC4)cc3)cc12 [Compound 2]
Emax: 70 to 100%
EC50 [1]: < 0.2 µM

Structure (SMILES): O=C(O)C(=O)c1c[nH]c2cc(Cl)c(-c3ccc(C4(O)CCC4)cc3)nc12 [Compound 3]
Emax: 50 to 70%
EC50 [1]: > 0.8 µM

Structure (SMILES): O=C(O)C(=O)c1c[nH]c2cc(Cl)c(-c3ccc(-c4ccccc4O)cc3)cc12 [Compound 4]
Emax: 50 to 70%
EC50 [1]: < 0.2 µM

Structure (SMILES): Cn1ccc2cc(-c3cc4c(C(=O)C(=O)O)c[nH]c4cc3Cl)ccc21 [Compound 5]
Emax: 70 to 100%
EC50 [1]: < 0.2 µM

Structure (SMILES): O=C(O)C(=O)c1c[nH]c2cc(Cl)c(-c3ccc(C4(CO)CC4)cc3)cc12 [Compound 6]
Emax: > 100%
EC50 [1]: < 0.2 µM

Structure (SMILES): COc1ccc(-c2cc3c(C(=O)C(=O)O)c[nH]c3cc2Cl)cc1 [Compound 7]
Emax: 70 to 100%
EC50 [1]: 0.2 to 0.8 µM

Structure (SMILES): O=C(O)C(=O)c1c[nH]c2cc(Cl)c(-c3ccc(-c4ccccc4)cc3)cc12 [Compound 8]
Emax: < 50%
EC50 [1]: < 0.2 µM

Structure (SMILES): O=C(NCc1ccccn1)c1c[nH]c2cc(Cl)c(-c3ccc(C4(O)CCC4)cc3)cc12 [Compound 9]
Emax: > 100%
EC50 [1]: > 0.8 µM

Structure (SMILES): O=C(NCC1COC1)c1c[nH]c2cc(Cl)c(-c3ccc(C4(O)CCC4)cc3)cc12 [Compound 10]
Emax: 50 to 70%
EC50 [1]: > 0.8 µM

Structure (SMILES): O=C(NCc1ccno1)c1c[nH]c2cc(Cl)c(-c3ccc(C4(O)CCC4)cc3)cc12 [Compound 11]
Emax: 70 to 100%
EC50 [1]: 0.2 to 0.8 µM

Structure (SMILES): O=C(NCc1cnoc1)c1c[nH]c2cc(Cl)c(-c3ccc(C4(O)CCC4)cc3)cc12 [Compound 12]
Emax: > 100%
EC50 [1]: > 0.8 µM

Structure (SMILES): O=C(Nc1ncc[nH]1)c1c[nH]c2cc(Cl)c(-c3ccc(-c4ccccc4)cc3)cc12 [Compound 13]
Emax: > 100%
EC50 [1]: > 0.8 µM

Structure (SMILES): O=C(NCc1ccco1)c1c[nH]c2cc(Cl)c(-c3ccc(C4(CO)CC4)cc3)cc12 [Compound 14]
Emax: > 100%
EC50 [1]: > 0.8 µM

Structure (SMILES): O=C(NCc1cccs1)c1c[nH]c2cc(Cl)c(-c3ccc(C4(CO)CC4)cc3)cc12 [Compound 15]
Emax: > 100%
EC50 [1]: > 0.8 µM

Structure (SMILES): O=C(NCc1ncco1)c1c[nH]c2cc(Cl)c(-c3ccc(C4(CO)CC4)cc3)cc12 [Compound 16]
Emax: 70 to 100%
EC50 [1]: 0.2 to 0.8 µM

Structure (SMILES): COC(=O)C(=O)c1c[nH]c2cc(Cl)c(-c3ccc(C4(CO)CC4)cc3)cc12 [Compound 17]
Emax: 70 to 100%
EC50 [1]: < 0.2 µM

Structure (SMILES): CNC(=O)C(=O)c1c[nH]c2cc(Cl)c(-c3ccc(C4(CO)CC4)cc3)cc12 [Compound 18]
Emax: 50 to 70%
EC50 [1]: 0.2 to 0.8 µM

Structure (SMILES): Cn1ccc2cc(-c3cc4c(C(=O)NCc5ccco5)c(O)[nH]c4cc3Cl)ccc21 [Compound 19]
Emax: > 100%
EC50 [1]: 0.2 to 0.8 µM

Structure (SMILES): Cn1ccc2cc(-c3cc4c(C(=O)NCC(=O)O)c(O)[nH]c4cc3Cl)ccc21 [Compound 20]
Emax: > 100%
EC50 [1]: 0.2 to 0.8 µM

Structure (SMILES): O=C1Nc2cc(Cl)c(-c3ccc(C4(CO)CC4)cc3)cc2C1=CNCc1ccco1 [Compound 21]
Emax: < 50%
EC50 [1]: > 0.8 µM

EC50 [1]: > 0.8 µM
Structure (SMILES): Cn1ccc2cc(-c3cc4c(cc3Cl)NC(=O)C4(C)C(=O)NCc3ccco3)ccc21 (centres unmarked) [Compound 22]

Structure (SMILES): O=C(Nc1ccn[nH]1)c1c[nH]c2cc(Cl)c(-c3ccc(C4(CO)CC4)cc3)cc12 [Compound 23]
Emax: > 100%
EC50 [1]: < 0.2 µM

Structure (SMILES): O=C(Nc1ncco1)c1c[nH]c2cc(Cl)c(-c3ccc(-c4ccccc4)cc3)cc12 [Compound 24]
EC50: > 0.8 µM
Emax: > 100%

Structure (SMILES): CN(Cc1cccs1)C(=O)c1c[nH]c2cc(Cl)c(-c3ccc(C4(CO)CC4)cc3)cc12 [Compound 25]
EC50: > 0.8 µM
Emax: < 50%

Structure (SMILES): CN(C(=O)c1c[nH]c2cc(Cl)c(-c3ccc(C4(CO)CC4)cc3)cc12)c1cc[nH]n1 [Compound 27]
EC50: > 0.8 µM
Emax: > 100%

Structure (SMILES): O=C(NCc1ccco1)c1c(O)[nH]c2cc(Cl)c(-c3ccc(C4(CO)CC4)cc3)cc12 [Compound 31]
Emax: > 100%
EC50 [1]: 0.2 to 0.8 µM

Structure (SMILES): Cn1ccc2cc(-c3cc4c(C(=O)NCc5ncco5)c(O)[nH]c4cc3Cl)ccc21 [Compound 32]
Emax: 70 to 100%
EC50 [1]: 0.2 to 0.8 µM

Structure (SMILES): O=C(Nc1cc[nH]n1)c1c[nH]c2cc(Cl)c(-c3ccc(C4(O)CCC4)cc3)cc12 [Compound 33]
Emax: > 100%
EC50 [1]: 0.2 to 0.8 µM

Structure (SMILES): O=C(Nc1cc[nH]n1)c1c[nH]c2cc(Cl)c(-c3ccc(-c4ccccc4O)cc3)cc12 [Compound 34]
EC50: 0.2 to 0.8 µM
Emax: > 100%

Structure (SMILES): O=C(NCc1nnn[nH]1)c1c[nH]c2cc(Cl)c(-c3ccc(C4(CO)CC4)cc3)cc12 [Compound 35]
Emax: > 100%
EC50 [1]: < 0.2 µM

Structure (SMILES): O=C(NCc1ccco1)c1c[nH]c2cc(Cl)c(-c3ccc(-c4ccccc4O)cc3)cc12 [Compound 36]
Emax: 50 to 70%
EC50 [1]: < 0.2 µM

Structure (SMILES): O=C(NCc1ccco1)c1c(O)[nH]c2cc(Cl)c(-c3ccc(-c4ccccc4O)cc3)cc12 [Compound 37]
Emax: > 100%
EC50 [1]: 0.2 to 0.8 µM
